Test results reported in patent US9132106B2, “Synergistic ophthalmic compositions for disinfecting contact lenses” (Abbott Medical Optics Inc., priority 2013, dated 2015).

Tested on: Candida albicans ATCC 10231
Assay: Antimicrobial activity, 6 hr log kill of C. albicans
Format: cell-based
Protocol: The test procedure for testing antimicrobial activity against specified test organisms is as follows: A 10-mL aliquot of test sample was transferred into a single polypropylene test tube. Sterile Dulbecco's Phosphate-Buffered Saline with 0.05 w/v % Polysorbate 80 (DPBST) was transferred into a separate polypropylene test tube and used as a control. All samples and control were stored at 20-25° C. throughout the duration of the test. Test cultures of specified test organisms were cultured and prepared in the conventional manner using Saboraud Dextrose Agar (SDA) as the growth medium. The challenge organism inoculum was adjusted to approximately 1×10e7-1×10e8 CFU/mL in DPBST. Fifty μL of culture inoculum was added to 10.0 mL of each test sample and control, so that the final inoculum level was in the range of 1×10e5 to 1×10e6 CFU (colony forming units) per mL of specified test organism. Contact time intervals for testing activity against the specified test organism were typically within 4 or 6 hours, e.g., 15 minutes, 30 minutes, 45 minutes, 1 hour, 2 hours, 4 hours and 6 hours, to remain within the intended product label instructions for maximum contact lens soak time.
Following incubation, the number of surviving organisms was enumerated by serial dilution and culture on SDA medium. An appropriate neutralizing disinfectant medium was used for performing serial dilutions (e.g. Letheen Neutralizing Broth containing 0.5% Polysorbate 80 media—LetheenT80). Additionally, the numbers of colony-forming-units (CFU) were counted and the Log 10 reduction in viable number calculated for test solutions based on the initial time zero challenge inoculum in the control solution.

[1] = Table II formula, 6 hour soaking

For `CCCCC(CC)CNC(=N)NC(=N)NCCCCCCNC(=N)NC(=N)NCC(CC)CCCC` (stereo not drawn) [alexidine], the “log kill from alexidine alone in the same formula” value (1.05 ppm alexidine, 6 hours, C. albicans) was “about 1.4 log” and the “log kill of C. albicans (FIG. 1)” value (alexidine at 1.00 ppm in Table 1 formula, 6 hour soaking) was 1.3 log.
For `[H]/N=C(\N/C(=N/[H])NCCCCCCNC(=N)NC(=N)Nc1ccc(Cl)cc1)Nc1ccc(Cl)cc1` [chlorhexidine], the “log kill from chlorhexidine alone in the same formula” value (5.00 ppm chlorhexidine, 6 hours, C. albicans) was “about 0.5 log”, the “chlorhexidine concentration needed to achieve a 2-log kill against C. albicans (FIG. 2)” value [1] was greater than 12 ppm and the “chlorhexidine concentration needed to achieve a 3-log kill against C. albicans (FIG. 2)” value [1] was greater than 15 ppm.
With “poly[(dimethyliminio)-2-butene-1,4-diyl chloride], α-[4-[tris(2-hydroxyethyl) ammonio]-2-butenyl]-Ω-[tris(2-hydroxyethyl)ammonio]-dichloride [PQ-1]” the “effect of PQ-1 on C. albicans (in words)” value (in the presence of 0.65% trisodium citrate dihydrate) was “little effect”.
